What was measured:
[1] = biological target: Sodium-dependent dopamine transporter (Rattus norvegicus, UniProt P23977); assay: Tested for the ability to displace [3H]WIN-35 428 binding to dopamine transporter (DAT) in rat striatal tissue; type: tissue-based, Striatum
[2] = biological target: Norepinephrine transporter (Rattus norvegicus, UniProt Q9WTR4); assay: Compound was tested for the inhibition of norepinephrine [3H]NE reuptake into rat cortical membranes; type: cell membranes, Membrane
[3] = biological target: Monoamine transporters; serotonin & dopamine (Rattus norvegicus) (UniProt P31652+P23977); assay: Selectivity ratio towards Serotonin and to that of dopamine transporter; type: protein assay
Sequence of Monoamine transporters; serotonin & dopamine (Rattus norvegicus) (P23977 whole entry, looked up): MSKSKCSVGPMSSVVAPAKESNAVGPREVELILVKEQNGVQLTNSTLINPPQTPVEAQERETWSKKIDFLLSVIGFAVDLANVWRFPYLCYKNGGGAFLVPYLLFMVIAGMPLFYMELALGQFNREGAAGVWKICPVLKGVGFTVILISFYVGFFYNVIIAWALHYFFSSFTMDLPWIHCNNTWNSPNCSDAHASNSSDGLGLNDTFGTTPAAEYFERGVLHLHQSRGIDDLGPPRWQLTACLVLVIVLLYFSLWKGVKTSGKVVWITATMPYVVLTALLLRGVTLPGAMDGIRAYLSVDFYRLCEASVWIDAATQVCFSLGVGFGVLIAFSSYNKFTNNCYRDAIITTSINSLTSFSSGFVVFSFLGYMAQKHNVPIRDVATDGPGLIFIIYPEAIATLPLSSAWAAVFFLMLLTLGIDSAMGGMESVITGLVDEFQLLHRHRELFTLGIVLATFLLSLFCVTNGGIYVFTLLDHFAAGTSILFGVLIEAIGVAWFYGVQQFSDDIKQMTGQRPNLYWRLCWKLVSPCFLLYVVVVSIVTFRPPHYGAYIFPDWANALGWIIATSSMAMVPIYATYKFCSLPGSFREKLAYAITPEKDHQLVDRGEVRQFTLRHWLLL
Sequence of Monoamine transporters; serotonin & dopamine (Rattus norvegicus) (P31652 whole entry, looked up): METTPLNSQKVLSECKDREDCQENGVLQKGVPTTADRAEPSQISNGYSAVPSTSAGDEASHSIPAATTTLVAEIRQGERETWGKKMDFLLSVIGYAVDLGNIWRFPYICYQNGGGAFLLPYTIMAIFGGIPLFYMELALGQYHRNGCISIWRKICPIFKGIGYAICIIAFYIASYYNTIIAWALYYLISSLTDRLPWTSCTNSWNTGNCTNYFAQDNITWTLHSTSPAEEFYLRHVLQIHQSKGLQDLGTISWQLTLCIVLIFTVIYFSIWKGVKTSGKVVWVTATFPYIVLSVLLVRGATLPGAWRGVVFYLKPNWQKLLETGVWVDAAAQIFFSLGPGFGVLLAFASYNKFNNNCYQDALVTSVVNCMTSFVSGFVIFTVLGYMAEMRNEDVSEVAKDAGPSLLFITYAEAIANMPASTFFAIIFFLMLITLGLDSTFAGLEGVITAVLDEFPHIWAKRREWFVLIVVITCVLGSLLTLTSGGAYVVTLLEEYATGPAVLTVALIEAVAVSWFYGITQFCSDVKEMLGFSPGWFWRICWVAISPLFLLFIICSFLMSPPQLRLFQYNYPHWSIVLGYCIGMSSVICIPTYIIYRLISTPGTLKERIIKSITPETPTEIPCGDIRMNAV

[4] = biological target: Sodium-dependent serotonin transporter (Rattus norvegicus, UniProt P31652); assay: Compound was tested for the inhibition of serotonin [3H]SER reuptake into rat forebrain membranes; type: cell membranes, Membrane
Sequence of Sodium-dependent serotonin transporter (P31652 whole entry): as the sequence (P31652 whole entry, looked up) above

Rattus norvegicus [5] = species on record: Rattus norvegicus; assay: Compound was tested for the inhibition of [3H]-DA reuptake into rat striatal tissue; type: functional, Striatum
[6] = biological target: Norepinephrine transporter (Rattus norvegicus) (UniProt Q9WTR4); assay: Selectivity ratio towards Norepinephrine and to that of dopamine transporter
Sequence of Norepinephrine transporter (Rattus norvegicus) (Q9WTR4 as listed by the source): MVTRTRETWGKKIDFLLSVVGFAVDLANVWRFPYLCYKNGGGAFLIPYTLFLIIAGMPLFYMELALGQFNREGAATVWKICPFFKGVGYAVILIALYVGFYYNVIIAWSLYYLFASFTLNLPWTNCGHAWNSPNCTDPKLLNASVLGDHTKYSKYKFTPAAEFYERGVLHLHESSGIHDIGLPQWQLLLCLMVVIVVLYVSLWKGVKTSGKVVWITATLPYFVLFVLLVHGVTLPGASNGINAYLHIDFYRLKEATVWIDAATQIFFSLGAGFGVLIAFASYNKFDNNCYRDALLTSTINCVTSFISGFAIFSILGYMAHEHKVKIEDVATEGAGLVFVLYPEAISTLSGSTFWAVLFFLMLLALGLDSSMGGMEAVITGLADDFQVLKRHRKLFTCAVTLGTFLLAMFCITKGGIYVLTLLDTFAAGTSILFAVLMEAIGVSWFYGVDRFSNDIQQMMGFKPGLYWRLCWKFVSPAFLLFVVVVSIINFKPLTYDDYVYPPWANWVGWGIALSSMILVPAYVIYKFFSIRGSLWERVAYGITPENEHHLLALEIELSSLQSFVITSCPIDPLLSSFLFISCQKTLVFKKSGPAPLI

[7] = biological target: Norepinephrine transporter (Rattus norvegicus) (UniProt Q9WTR4); assay: Selectivity ratio towards Norepinephrine and to that of serotonin transporter
Rattus norvegicus [8] = species on record: Rattus norvegicus; assay: Compound was tested for the inhibition of [3H]DA reuptake into dopamine transporter in rat striatal tissue; type: functional, Striatum

Sequence of Sodium-dependent dopamine transporter (P23977 whole entry): as the sequence (P23977 whole entry, looked up) above
Sequence of Norepinephrine transporter (Q9WTR4 whole entry): as the sequence (Q9WTR4 as listed by the source) above

Compound	Ki [1]	Ki [2]	Selectivity ratio [3]	Ki [4]	Ki (Rattus norvegicus [5])	Selectivity ratio [6]	Selectivity ratio [7]	Ki (Rattus norvegicus [8])
c1ccc(-c2nccnc2-c2ccccc2)cc1	> 1000 nM							
N=c1scc(-c2ccc(Cl)cc2)n1-c1ccc(Cl)cc1Cl	533 nM	141 nM	3.32	843 nM	254 nM	0.55	0.17	
Cc1cc(-n2c(-c3c(F)cccc3F)csc2=N)ccc1Cl	48 nM	86 nM	4.25	433 nM	102 nM	0.84	0.2	
N=c1scc(-c2ccc(Br)cc2)n1-c1cccc(C(F)(F)F)c1	71 nM	140 nM	0.56	67 nM	120 nM	1.17	2.09	
N=c1scc(-c2ccc(Cl)cc2)n1-c1ccccc1N1CCOCC1	42000 nM	22100 nM	0.006	424 nM		0.29	52.1	76400 nM
CC1C(=O)N=CC(c2ccccc2)=C1c1ccccc1 (stereo not drawn)	> 1000 nM							
Cc1ccc(-c2csc(=N)n2-c2ccc(Cl)cc2)cc1	124 nM	801 nM	15.3	2620 nM	171 nM	4.68	0.31	
N=c1scc(-c2ccc(Cl)cc2)n1-c1cccc(C(F)(F)F)c1	86 nM	26 nM	3.94	398 nM	101 nM	0.26	0.065	
Cc1cc(-c2csc(=N)n2-c2ccc(Cl)cc2)ccc1Cl	24 nM	99 nM	9.4	225 nM	23 nM	4.1	0.44	
N=c1scc(-c2ccc(Cl)cc2)n1-c1ccccc1F	189 nM	36 nM	6.69	1410 nM	210 nM	0.17	0.026	

Reference: ChEMBL document CHEMBL1135173, “Discovery of substituted 3,4-diphenyl-thiazoles as a novel class of monoamine transporter inhibitors through 3-D pharmacophore search using a new pharmacophore model derived from mazindol” (Bioorg Med Chem Lett, 2002)
